Data: patent publication US20040106671A1, “Remedies for vesical hyperesthesia” (priority 2001, published 2004)

Legend:
[1] = tested on: Hypersensitivity of Bladder with Cystitis; experiment: Inhibitory activity on hypersensitivity of bladder with cystitis (cystometry, xylene-induced cystitis); assay type: in vivo, Male SD rats; conditions: oral, rats with xylene-induced cystitis; for pre-micturition contractions (amplitude, relative value, value before administration defined as 100): 0.05 mg/mL suspension at 2 mL/kg, average ± standard error, n = 13
Method: The experiment was carried out by referring to the method of Morikawa, et al. [Jpn. J. Pharmacol., Vol. 52, pp. 587-595 (1990)]. Male SD rats weighing from 250 to 400 g (supplied by Japan SLC) were used in the test. Five to seven animals of these rats were put in each metal cage and reared by allowing them to freely take commercially available chow and water, in an animal room at room temperature between 19 and 25° C. and humidity between […] and 70% under illumination for 12 hours (from 7:00 a.m. to 7:00 p.m.) per day. The rats were subjected to bladder catheterization. Under anesthesia with pentobarbital sodium, the bladder was exposed by midline incision of the abdomen. […] The bladder catheter was fixed with a surgical silk ligature and indwelled. The other end of the catheter was exposed subcutaneously from the back of the neck, plugged and then fixed to the skin with a surgical thread. Two to three days after the bladder catheterization, a cystometry test was performed. The rats were put in a Bollman cage (Natsume Seisakusho Co., Ltd.) and a three-way cock was connected to the bladder catheter, one end of the cock was connected to a pressure transducer (Nihon Kohden Corp.) and the other end was connected to a 50-mL syringe (Terumo Corp.) arranged to an infusion pump (Harvard Apparatus, Inc.) for physiological saline infusion. The intravesical pressure signal from the pressure transducer was amplified with a strain pressure amplifier (AP-601G, Nihon Kohden Corp.) connected thereto, and was recorded on a thermal array recorder (RTA-1200, Nihon Kohden Corp.) via a polygraph system (RMP-6008, Nihon Kohden Corp.) containing the above amplifier. After the completion of the preparation for the measurement, a room temperature physiological saline was continuously infused into the bladder at a flow rate of 3 mL/h, and the intravesical pressure was measured to observe micturition intervals. After the micturition intervals became constant, the intravesical pressure waveform was recorded for one hour. Then, saline infusion was stopped, and 0.5 mL of xylene (Wako Pure Chemical Industries, Ltd.) was infused into the bladder through the catheter and was removed about 10 seconds later to cause cystitis. After 30 minutes, the continuous infusion of saline was started again and the intravesical pressure was monitored for about one hour to obtain the value before dosing. The test compound was suspended in a 0.5 w/v % aqueous solution of methylcellulose at a concentration of 0.05 mg/mL. The suspension or a vehicle was orally administered to the animals at a volume of 2 mL/kg. After the administration of the test compound, the intravesical pressure waveform was recorded for 4.5 hours. […] Pre-micturition contraction was measured as an index of bladder hypersensitivity. The values of pre-micturition contractions were read from the intravesical pressure waveform recorded on a chart paper using a digitizer (KD3220, Graphtec Corporation) controlled by a computer (PC-9801NS/R, NEC), and saved as a WJ2 file on Lotus 1-2-3 R2.5J (Lotus). […] The amplitude of pre-micturition contractions was expressed as a relative value when the value before the drug administration that was defined as 100, and the average ±standard error was calculated for each group.

[2] = tested on: dd male mice; experiment: Acute toxicity test; assay type: in vivo; conditions: oral administration, mortality on the seventh day after the administration
Method: The test compound was administered orally or intraperitoneally to 3 animals per group of dd male mice (body weight: 20±1 g). The minimum lethal dose (MLD) value was obtained by observing mortality on the seventh day after the administration.

SMILES: C[C@](O)(C(=O)Nc1cccc2c1C(=O)c1sccc1CS2(=O)=O)C(F)(F)F [Compound 1, (S)-(+)-N-(5,5-dioxido-10-oxo-4,10-dihydrothieno[3,2-c][1]benzothiepin-9-yl)-3,3,3-trifluoro-2-hydroxy-2-methylpropanamide]
- pre-micturition contractions (amplitude, relative value, value before administration defined as 100) ([1]; After 1 hour): 71.5 ± 6.5%
- pre-micturition contractions (amplitude, relative value, value before administration defined as 100) ([1]; After 2 hours): 64.7 ± 6.8 %
- pre-micturition contractions (amplitude, relative value, value before administration defined as 100) ([1]; After 3 hours): 61.7 ± 6.8 %
- pre-micturition contractions (amplitude, relative value, value before administration defined as 100) ([1]; After 4 hours): 61.6 ± 5.4 %
- effect on pre-micturition contractions (in words) ([1]; Test Example 1): inhibited pre-micturition contractions
- minimum lethal dose (MLD) [2]: > 1000 mg/kg
